Assay results: patent US10919879B2, “Synthesis and novel salt forms of (R)-5-((E)-2-pyrrolidin-3-ylvinyl)pyrimidine” (Oyster Point Pharma, Inc., priority 2008, dated 2021)

Assays:
[1] = Stability of the free base; type: physicochemical; conditions: free base form, viscous oil
[2] = biological target: α4β2 nicotinic subtype (Homo sapiens, UniProt P17787+P43681); conditions: α4β2 over α7, ganglionic and muscle subtypes; background statement, no test described; cited from earlier work
[3] = Water solubility of the free base; type: physicochemical; conditions: free base form, viscous oil
Procedure: Aqueous solubility was determined by suspending sufficient compound in water to give a maximum final concentration of ≥10 mg/mL of the parent free-form of the compound. The suspension was equilibrated at 25° C. for 24 h, and then the pH was measured. The suspension was then filtered through a glass fiber C filter into a 96 well plate. The filtrate was then diluted by a factor of 101. Quantitation was by HPLC with reference to a standard solution of approximately 0.1 mg/mL in DMSO. Different volumes of the standard, diluted and undiluted sample solutions were injected. The solubility was calculated using the peak areas determined by integration of the peak found at the same retention time as the principal peak in the standard injection. If there was sufficient solid in the filter plate, the XRPD was collected.

α4β2 nicotinic subtype, sequence (P43681 29-627 limits assumed): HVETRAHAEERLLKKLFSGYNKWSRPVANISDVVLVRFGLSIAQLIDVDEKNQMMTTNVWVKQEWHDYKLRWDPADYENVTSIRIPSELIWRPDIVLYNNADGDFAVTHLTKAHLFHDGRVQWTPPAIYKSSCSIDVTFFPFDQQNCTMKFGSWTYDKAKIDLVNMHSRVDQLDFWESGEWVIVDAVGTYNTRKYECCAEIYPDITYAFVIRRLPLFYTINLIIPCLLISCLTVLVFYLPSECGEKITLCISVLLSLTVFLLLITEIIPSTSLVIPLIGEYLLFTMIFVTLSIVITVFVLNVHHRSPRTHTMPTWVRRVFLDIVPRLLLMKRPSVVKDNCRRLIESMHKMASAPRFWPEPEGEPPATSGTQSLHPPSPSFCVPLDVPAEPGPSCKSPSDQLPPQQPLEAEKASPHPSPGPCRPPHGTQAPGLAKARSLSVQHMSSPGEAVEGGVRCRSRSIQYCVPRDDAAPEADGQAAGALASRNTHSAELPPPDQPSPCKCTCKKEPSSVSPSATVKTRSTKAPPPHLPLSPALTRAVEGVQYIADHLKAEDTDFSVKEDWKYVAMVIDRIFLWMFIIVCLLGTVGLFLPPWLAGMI
α4β2 nicotinic subtype, sequence (P17787 26-502): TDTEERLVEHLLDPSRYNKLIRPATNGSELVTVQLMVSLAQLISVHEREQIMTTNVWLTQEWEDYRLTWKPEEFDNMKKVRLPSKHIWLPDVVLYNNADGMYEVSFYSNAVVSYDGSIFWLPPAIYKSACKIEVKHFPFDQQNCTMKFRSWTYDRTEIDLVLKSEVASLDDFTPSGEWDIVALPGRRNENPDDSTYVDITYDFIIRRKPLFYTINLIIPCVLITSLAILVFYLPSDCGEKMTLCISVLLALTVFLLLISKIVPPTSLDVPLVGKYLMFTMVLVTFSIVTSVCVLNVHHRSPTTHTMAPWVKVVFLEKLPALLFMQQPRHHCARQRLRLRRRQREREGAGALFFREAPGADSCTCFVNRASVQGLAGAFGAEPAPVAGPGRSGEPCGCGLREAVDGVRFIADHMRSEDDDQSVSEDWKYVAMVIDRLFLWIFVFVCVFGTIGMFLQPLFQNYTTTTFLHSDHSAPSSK

stability [1]: limited
water solubility [3]: limited
Structure (SMILES): C(=C\[C@H]1CCNC1)/c1cncnc1 [(R)-5-((E)-2-pyrrolidin-3-ylvinyl)pyrimidine]
NNR agonist selectivity [2]: selectivity for the α4β2 nicotinic subtype over other nicotinic subtypes
